According to PubChem BioAssay AID2060900 (Molecular Pharmacology Branch, DTP, NCI, 2025):

System: 521955-158-R2-J5-PDC complex spheroids, viability
Assay: Anticancer human tumor 521955-158-R2-J5-PDC patient-derived pancreatic carcinoma cell line growth inhibition [RAS]
Conditions: for IC50: curve of first compound; for viability, T/C: stronger effect = lower value
Source text: RAS pathway inhibitors in Combinations in Complex Spheroids
A high-throughput screen of multi-cell type tumor spheroids was designed to identify active combinations of RAS pathway inhibitors and targeted small molecules. Complex spheroids include a stromal component modeled by human endothelial cells (HUVEC) and fibroblasts modeled by human mesenchymal stem cells (MSCs). The concentration ranges selected for each drug and investigational agent were based upon clinically achievable concentrations if the clinical Cmax of the agent was known.
Compounds. The drugs and investigational agents: abemaciclib (NSC768073), cobimetinib (NSC768068), divarasib (GDC6063, NSC841802), docetaxel (NSC628503), GDC-1971 (RLY-1971, NSC841576), gemcitabine (NSC613327), inavolisib (NSC800729), ipatasertib (NSC767898), KB-0742 (NSC834161), MRTX-1133 (NSC836407), osimertinib (NSC779217), RMC-4630 (NSC839698), RMC-6236 (NSC851965), RMC-6291 (NSC852671), Ro-3306 (NSC812927), sapanisertib (NSC764658), SN-38 (NSC673596), staurosporine (NSC755774), SY5609 (NSC837396), and tovorafenib (DAY101, NSC766906), were obtained from the National Cancer Institute (NCI) Developmental Therapeutics Program Chemical Repository. The FDA-approved anticancer drug set is available from the NCI Developmental Therapeutics Program. […] The stock solutions were prepared in dimethyl sulfoxide (DMSO, Sigma-Aldrich, St. Louis, MO, cat. D2650) at 800-fold the tested concentration and stored at -70 degrees C prior to their use. All drugs and investigational agents were tested over a range starting from a high concentration at or near the clinical Cmax and decreasing in half-log increments. If the clinical Cmax for an agent had not been determined, the highest concentration tested was 10 microM.
Cell Culture. All cells were maintained in an incubator at 37 degrees C and 5% CO2 with 95% humidity. The PDC lines were cultured according to standard operating procedures established by the NCI PDMR. All PDCs were thawed and cultured in Matrigel-coated flasks prepared with a working solution of 1X Ham's F-12 nutrient mix, without supplementation (Invitrogen, Waltham, MA, cat. 11765054), 100 U/mL penicillin-streptomycin (Invitrogen, cat. 15140122), and 2.5% Matrigel (Corning Inc., Corning, NY, cat. 354248) for the first three passages. The 362531-283-R-J2-PDC and 782815-120-R-J1-PDC lines were cultured in 6C/Colon 1B media, which includes advanced DMEM/F-12 (Thermo Fisher Scientific, cat. 12634028), 10 mM HEPES (Thermo Fisher Scientific, cat. 15630080), 1X GlutaMAX supplement (Thermo Fisher Scientific, cat. 35050061), 0.1 mg/mL primocin (InvivoGen, San Diego, CA, cat. ant-pm-2), 10% defined fetal bovine serum, heat inactivated (HyClone Laboratories Inc., Logan, UT, cat. SH30070.03HI), 50% L-WRN conditioned media (ATCC, cat. CRL-3276), 1.25 mM N-Acetyl-L-cysteine (Sigma-Aldrich, cat. A9165), 10 mM nicotinamide (Sigma-Aldrich, cat. N0636), 1X B-27 supplement (Thermo Fisher Scientific, cat. 17504044), 1X N-2 supplement (Thermo Fisher Scientific, cat. 17502048), 50 ng/mL human EGF (Thermo Fisher Scientific, cat. PHG0311), and 10 microM Y-27632 dihydrochloride (Tocris Bioscience, cat. 1254). The K12877-001-R-J1-PDC line was cultured in 6I media, which includes all 6C/Colon 1B media plus 10 ng/mL human FGF-10 (PeproTech, cat. 100-26), 1 ng/mL human FGF-2 (PeproTech, cat. 100-18B), 1 µM prostaglandin E2 (Tocris Bioscience, cat. 2296), […] hydrocortisone (Sigma-Aldrich, cat. H4001), and […] bovine insulin (Sigma-Aldrich, cat. I6634). The K86415-001-R-J1-PDC line was cultured in 6D media, which includes all 6C/Colon 1B media components minus the L-WRN conditioned media. The 485176-168-R4-J1-PDC was cultured in PANC media, which includes all 6C/Colon 1B media plus 100 ng/mL human FGF-10 (PeproTech, cat. 100-26), 500 nM SB-431542 (Selleckchem, cat. S1067), and 10 nM gastrin (Tocris Bioscience, cat. 3006). […]

[1] = second compound 0.0316 µM, first compound 0.0316 µM
[2] = second compound 0.0316 µM, first compound 0.1 µM
[3] = second compound 0.0316 µM, first compound 0.316 µM
[4] = second compound 0.0316 µM, first compound 1 µM
[5] = second compound 0.0316 µM, first compound 3.16 µM
[6] = second compound 0.0316 µM, first compound 10 µM
[7] = second compound 0.1 µM, first compound 0.0316 µM
[8] = second compound 0.1 µM, first compound 0.1 µM
[9] = second compound 0.1 µM, first compound 0.316 µM
[10] = second compound 0.1 µM, first compound 1 µM
[11] = second compound 0.1 µM, first compound 3.16 µM
[12] = second compound 0.1 µM, first compound 10 µM
[13] = second compound 0.316 µM, first compound 0.0316 µM
[14] = second compound 0.316 µM, first compound 0.1 µM
[15] = second compound 0.316 µM, first compound 0.316 µM
[16] = second compound 0.316 µM, first compound 1 µM
[17] = second compound 0.316 µM, first compound 3.16 µM
[18] = second compound 0.316 µM, first compound 10 µM
[19] = second compound 1 µM, first compound 0.0316 µM
[20] = second compound 1 µM, first compound 0.1 µM
[21] = second compound 1 µM, first compound 0.316 µM
[22] = second compound 1 µM, first compound 1 µM
[23] = second compound 1 µM, first compound 3.16 µM
[24] = second compound 1 µM, first compound 10 µM
[25] = second compound 3.16 µM, first compound 0.0316 µM
[26] = second compound 3.16 µM, first compound 0.1 µM
[27] = second compound 3.16 µM, first compound 0.316 µM
[28] = second compound 3.16 µM, first compound 1 µM
[29] = second compound 3.16 µM, first compound 3.16 µM
[30] = second compound 3.16 µM, first compound 10 µM
[31] = second compound 10 µM, first compound 0.0316 µM
[32] = second compound 10 µM, first compound 0.1 µM
[33] = second compound 10 µM, first compound 0.316 µM
[34] = second compound 10 µM, first compound 1 µM
[35] = second compound 10 µM, first compound 3.16 µM
[36] = second compound 10 µM, first compound 10 µM
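Note: compound exposure lasted seven days before the viability read.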
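Throughout, for viability, T/C: spheroids also contain HUVEC endothelial cells and mesenchymal stem cells as stroma.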

**Q.** Which results are given for `CC(C)NCC(C(=O)N1CCN(c2ncnc3c2C(C)CC3O)CC1)c1ccc(Cl)cc1` (centres undefined) + C#Cc1c(F)ccc2cc(O)cc(-c3ncc4c(N5CC6CCC(C5)N6)nc(OCC56CCCN5CC(F)C6)nc4c3F)c12?
**A.** IC50 (second compound 0.0316 µM): 49.1 nM; IC50 (second compound 0.1 µM): < 31.6 nM; IC50 (second compound 0.316 µM): < 31.6 nM; IC50 (second compound 1 µM): < 31.6 nM; IC50 (second compound 3.16 µM): < 31.6 nM; IC50 (second compound 10 µM): < 31.6 nM; viability, T/C [1]: 55.1%; viability, T/C [2]: 40%; viability, T/C [3]: 36.9%; viability, T/C [4]: 15.6%; viability, T/C [5]: 10.7%; viability, T/C [6]: 10.4%; viability, T/C [7]: 45.7%; viability, T/C [8]: 54.2%; viability, T/C [9]: 26.8%; viability, T/C [10]: 13.4%; viability, T/C [11]: 8.3%; viability, T/C [12]: 8.31%; viability, T/C [13]: 43.6%; viability, T/C [14]: 43.2%; viability, T/C [15]: 29.1%; viability, T/C [16]: 11.7%; viability, T/C [17]: 7.83%; viability, T/C [18]: 6.31%; viability, T/C [19]: 43.8%; viability, T/C [20]: 45.2%; viability, T/C [21]: 26.9%; viability, T/C [22]: 12.7%; viability, T/C [23]: 6.2%; viability, T/C [24]: 4.69%; viability, T/C [25]: 43.4%; viability, T/C [26]: 38.2%; viability, T/C [27]: 22%; viability, T/C [28]: 8.28%; viability, T/C [29]: 5.14%; viability, T/C [30]: 3.32%; viability, T/C [31]: 32.3%; viability, T/C [32]: 27%; viability, T/C [33]: 15.1%; viability, T/C [34]: 7.44%; viability, T/C [35]: 3.67%; viability, T/C [36]: 1.98%

**Q.** How did the IC50 (second compound 0.0316 µM) turn out when `CC(Nc1ccc2c(c1)OCCn1cc(N3C(=O)OCC3C(F)F)nc1-2)C(N)=O` (centres undefined) + C#Cc1c(F)ccc2cc(O)cc(-c3ncc4c(N5CC6CCC(C5)N6)nc(OCC56CCCN5CC(F)C6)nc4c3F)c12 was run?
**A.** The IC50 was 55.4 nM.

**Q.** And the IC50 (second compound 0.1 µM)?
**A.** Its IC50 is under 31.6 nM.

**Q.** And the IC50 (second compound 0.316 µM)?
**A.** The IC50 was under 31.6 nM.

**Q.** What about the IC50 (second compound 1 µM) of the same compound?
**A.** Its IC50 is under 31.6 nM.

**Q.** What about the IC50 (second compound 3.16 µM) of the same compound?
**A.** The IC50 was under 31.6 nM.

**Q.** And the IC50 (second compound 10 µM)?
**A.** The IC50 was under 31.6 nM.

**Q.** And the viability, T/C [1]?
**A.** The viability, T/C was 60.7%.

**Q.** What about the viability, T/C [2] of the same compound?
**A.** Its viability, T/C is 37.6%.

**Q.** What about the viability, T/C [3] of the same compound?
**A.** The viability, T/C was 28.7%.

**Q.** And the viability, T/C [4]?
**A.** The viability, T/C was 17.1%.

**Q.** And the viability, T/C [5]?
**A.** The viability, T/C was 12.9%.

**Q.** And the viability, T/C [6]?
**A.** Its viability, T/C is 11.9%.

**Q.** And the viability, T/C [7]?
**A.** Its viability, T/C is 46.9%.

**Q.** What about the viability, T/C [8] of the same compound?
**A.** The viability, T/C was 31.9%.

**Q.** What about the viability, T/C [9] of the same compound?
**A.** Its viability, T/C is 24.3%.

**Q.** What about the viability, T/C [10] of the same compound?
**A.** Its viability, T/C is 16%.

**Q.** What about the viability, T/C [11] of the same compound?
**A.** Its viability, T/C is 13.6%.

**Q.** What about the viability, T/C [12] of the same compound?
**A.** Its viability, T/C is 11.3%.

**Q.** What about the viability, T/C [13] of the same compound?
**A.** The viability, T/C was 48.1%.

**Q.** And the viability, T/C [14]?
**A.** Its viability, T/C is 35.1%.

**Q.** And the viability, T/C [15]?
**A.** Its viability, T/C is 18.7%.

**Q.** What about the viability, T/C [16] of the same compound?
**A.** Its viability, T/C is 16%.

**Q.** What about the viability, T/C [17] of the same compound?
**A.** The viability, T/C was 10.8%.

**Q.** And the viability, T/C [18]?
**A.** The viability, T/C was 10.2%.

**Q.** And the viability, T/C [19]?
**A.** Its viability, T/C is 36%.

**Q.** And the viability, T/C [20]?
**A.** The viability, T/C was 28.7%.

**Q.** What about the viability, T/C [21] of the same compound?
**A.** The viability, T/C was 18.2%.

**Q.** What about the viability, T/C [22] of the same compound?
**A.** The viability, T/C was 16.7%.

**Q.** And the viability, T/C [23]?
**A.** Its viability, T/C is 11.7%.

**Q.** What about the viability, T/C [24] of the same compound?
**A.** The viability, T/C was 8.56%.

**Q.** What about the viability, T/C [25] of the same compound?
**A.** The viability, T/C was 32.7%.

**Q.** What about the viability, T/C [26] of the same compound?
**A.** The viability, T/C was 25.3%.

**Q.** What about the viability, T/C [27] of the same compound?
**A.** Its viability, T/C is 16.3%.

**Q.** And the viability, T/C [28]?
**A.** Its viability, T/C is 11%.

**Q.** And the viability, T/C [29]?
**A.** Its viability, T/C is 8.73%.

**Q.** What about the viability, T/C [30] of the same compound?
**A.** Its viability, T/C is 6.29%.

**Q.** What about the viability, T/C [31] of the same compound?
**A.** The viability, T/C was 26.5%.

**Q.** And the viability, T/C [32]?
**A.** Its viability, T/C is 16.8%.

**Q.** What about the viability, T/C [33] of the same compound?
**A.** The viability, T/C was 8.86%.

**Q.** And the viability, T/C [34]?
**A.** The viability, T/C was 4.7%.

**Q.** What about the viability, T/C [35] of the same compound?
**A.** Its viability, T/C is 2.91%.

**Q.** And the viability, T/C [36]?
**A.** Its viability, T/C is 1.54%.
